The text below walks through data of US20060127990A1, “4'-thionucleotide” (GENETICLAB CO., LTD, priority 2002, published 2006).

The target of assay [1] is T1, T7 RNA polymerase (Escherichia phage T7, UniProt P00573). Put plainly: Incorporation of 4′-thio UTP into RNA chain with T7 RNA polymerase (26mer transcript). It counts as biochemical. The settings on record: 0.4 mM NTPs (GTP+ATP+CTP+4′-thio UTP), 100 U T7 RNA polymerase, 37° C., 3 hours; compared with lane 4 (native UTP). As to the method:
Incorporation experiment using T7 RNA polymerase was performed with 4′-thio UTP obtained in Example 9. In this experiment, double-stranded DNA containing T7 promoter sequence was used (FIG. 7).
The reaction was conducted in 20 μL of a solution containing 40 mM Tris-HCl with PH 8.0, 8 mM MgCl2, 2 mM spermidine, 5 mM DTT, 0.4 mM NTPs, 17 nM [γ-^32P]GTP, 2.0 μM template DNA and 100 U T7 RNA polymerase. NTPs were (1) GTP, (2) GTP+ATP, (3) GTP+ATP+CTP, (4) GTP+ATP+CTP+UTP, and (5) GTP+ATP+CTP+4′-thio UTP, respectively. The reaction solution was incubated at 37° C. for 3 hours, and the reaction was stopped. Subsequently, electrophoresis was performed with 20% modified polyacrylamide gel (30×40×0.05 cm, 1800 V, 1 hour, 1×TEB), and analysed by autoradiography.
In lane 1, bands corresponding to 2mer and 3mer of G and a rudder were observed. In lane 2, an expected band with chain elongation stopped at 6mer was observed, and a minor band elongated by one residue was observed. In lane 3, an expected band with chain elongation stopped at 9mer was observed, and a minor band elongated by one residue was observed. In lane 4, a band of 26mer full-length product was observed.

For assay [2], the target named is T1, T7 RNA polymerase. Description: Incorporation of 4′-thio UTP and 4′-thio CTP into RNA chain with T7 RNA polymerase (30mer transcript). It counts as biochemical. The settings on record: 0.4 mM NTPs, replacing the native NTP, 47mer double-stranded DNA template, 37° C., 3 hours. As to the method:
Incorporation experiment using T7 RNA polymerase was performed with 4′-thio UTP and 4′-thio CTP. In this experiment, 47mer double-stranded DNA containing T7 promoter sequence was used (FIG. 9).
The reaction was conducted in 20 μL of a solution containing 40 mM Tris-HCl with pH 8.0, 8 mM MgCl2, 2 mM spermidine, 5 mM DTT, 0.4 mM NTPS, 17 nM [γ-^32P]GTP, 2.0 μM template DNA and 100 U T7 RNA polymerase. NTPs were (1) ATP, GTP, CTP and UTP, (2) using 4′-thio UTP instead of UTP, 3) using 4′-thio CTP instead of CTP, and 4) UTP and CTP were replaced with 4′-thio UTP and 4′-thio CTP. The reaction solution was incubated at 37° C. for 3 hours, and the reaction was stopped. Subsequently, electrophoresis was performed with 20% modified polyacrylamide gel (30×40×0.05 cm, 1800 V, 1 hour, 1×TEB), and analysed by autoradiography.
A relative transcription efficiency is shown in FIG. 10 with a transcription efficiency of native NTPs being defined as 100.

T1 sequence (P00573 whole entry): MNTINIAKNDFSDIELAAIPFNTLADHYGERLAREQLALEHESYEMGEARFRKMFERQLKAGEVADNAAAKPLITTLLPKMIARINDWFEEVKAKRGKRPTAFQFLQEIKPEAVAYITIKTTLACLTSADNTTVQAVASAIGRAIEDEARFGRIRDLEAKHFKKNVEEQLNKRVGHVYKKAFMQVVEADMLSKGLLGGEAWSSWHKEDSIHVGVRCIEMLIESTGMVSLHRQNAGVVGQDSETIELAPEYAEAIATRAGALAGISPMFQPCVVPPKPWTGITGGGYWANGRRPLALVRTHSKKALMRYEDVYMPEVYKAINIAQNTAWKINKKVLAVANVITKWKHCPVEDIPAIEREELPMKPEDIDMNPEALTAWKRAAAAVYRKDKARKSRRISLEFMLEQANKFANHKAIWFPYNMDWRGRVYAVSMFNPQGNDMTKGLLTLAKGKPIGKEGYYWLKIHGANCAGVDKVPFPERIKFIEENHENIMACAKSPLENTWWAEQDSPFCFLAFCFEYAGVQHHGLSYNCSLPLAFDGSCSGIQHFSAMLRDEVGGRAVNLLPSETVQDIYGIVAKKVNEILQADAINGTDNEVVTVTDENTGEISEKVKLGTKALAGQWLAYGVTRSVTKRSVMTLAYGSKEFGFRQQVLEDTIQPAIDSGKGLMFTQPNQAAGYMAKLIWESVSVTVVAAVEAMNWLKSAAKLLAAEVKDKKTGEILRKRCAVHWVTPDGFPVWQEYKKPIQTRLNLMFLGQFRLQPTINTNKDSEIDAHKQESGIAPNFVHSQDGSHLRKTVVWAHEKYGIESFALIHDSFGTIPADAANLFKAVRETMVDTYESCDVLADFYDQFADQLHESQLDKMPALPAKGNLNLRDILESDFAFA

As to `O=c1ccn([C@@H]2S[C@H](COP(=O)(O)OP(=O)(O)OP(=O)(O)O)[C@@H](O)[C@H]2O)c(=O)[nH]1` [4′-thio UTP, 4′-Thiouridine 5′-triphosphate], the “band of full-length product (26mer RNA) when used instead of UTP” value at T7 RNA polymerase [1] was “approximately the same amount as in lane 4”. Moreover, at T7 RNA polymerase [2], the “recognition by T7 RNA polymerase as substrate and incorporation into RNA chain (30mer full-length product)” value was “incorporated into RNA chain efficiently”.
On to `Nc1ccn([C@@H]2S[C@H](COP(=O)(O)OP(=O)(O)OP(=O)(O)O)[C@@H](O)[C@H]2O)c(=O)n1` [4′-thio CTP, 4′-Thiocytidine 5′-triphosphate], for which, at T7 RNA polymerase [2], the “recognition by T7 RNA polymerase as substrate and incorporation into RNA chain (30mer full-length product)” value was “incorporated into RNA chain efficiently”.
